pIC50: −log10 of the molar value.
How the values were obtained:
MV-4-11 cells = assay: MV-4-11 cell proliferation inhibition assay; type: cell-based; conditions: Homo sapiens, MV4-11, 144 h; six-day assay, CellTiter-Glo
Protocol: • A. Purpose: to determine the effects of compounds on Toledo cells through a six-day cell proliferation assay. • B. Reagents and materials: • 1. Cell culture medium: RPMI 1640+10% FBS • 2. 384-well cell culture plate (Corning, item #3764) • 3. 0.4% Taipan Blue Staining Solution (Thermo Fisher, item #T10282) • 4. cell counting plate (Thermo Fisher, item #C10228) • 5. 50 ml reagent reservoir (Corning, item #4870) • 6. 50 ml conical sterile polypropylene centrifuge tube (Thermo Fisher, item #339653) • 7. Automatic cell counter (Thermo Fisher, item #AMQAX1000) • 8. CellTiter-Glo Luminescent Cell Viability Detection Reagent (Promega, item #G7572) • 9. SpectraMax i3x Multi-Mode Enzyme Labeling Instrument (Megaman Molecular Instruments, item #5024062) • C. Experimental method • 1. Resuspending the cells with a pipette. • 2. 0.4% Taipan blue staining solution and Toledo cells were mixed in equal proportion, and the cells were counted using an automatic cell counter. • 3. Toledo cells were diluted to a final concentration of 2000 cells per well and transferred to a 50 ml reagent reservoir. • 4. Diluted Toledo cells were added to a 384-well cell culture plate, 40 ul per well. • 5. The cells were shortly centrifuged and settled. • 6. The cells were incubated in a 37° C., 5% CO2 cell culture incubator. • 7. The substrate in the CellTiter-Glo Luminescent Cell Viability Detection Reagent was mixed with the solution. • 8. After six days, the 384-well cell culture plate was taken from the incubator and 20 ul of configured CellTiter-Glo reagent was added to each well. • 9. 384-well cell culture platewasmixed in an orbital shaker for 30 minutes. • 10. Signal of luminescence was detected with a SpectraMax i3x multi-mode enzyme labeling instrument.
Similar to the Toledo cell proliferation inhibition assay method, the difference was that MV-4-11 cells were used and the cell culture medium was IMDM+10% FBS; in step 3 of the assay method 250 cells per well was used instead;

Toledo cells = assay: Toledo cell proliferation inhibition assay; type: cell-based; conditions: Homo sapiens, Toledo, 144 h; six-day assay, CellTiter-Glo
How it was run: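 Toledo cells seeded at 2000 cells/well in RPMI 1640 + 10% FBS and incubated with compound for six days at 37° C, 5% CO2. Viability was then read by CellTiter-Glo luminescence after 30 min orbital mixing.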

PRMT1 = PRMT1 (Homo sapiens, UniProt Q99873); assay: PRMT1 enzyme activity test; type: biochemical; conditions: 0.5 nM PRMT1, 3H-SAM, peptide
Sequence of PRMT1 (Q99873 whole entry): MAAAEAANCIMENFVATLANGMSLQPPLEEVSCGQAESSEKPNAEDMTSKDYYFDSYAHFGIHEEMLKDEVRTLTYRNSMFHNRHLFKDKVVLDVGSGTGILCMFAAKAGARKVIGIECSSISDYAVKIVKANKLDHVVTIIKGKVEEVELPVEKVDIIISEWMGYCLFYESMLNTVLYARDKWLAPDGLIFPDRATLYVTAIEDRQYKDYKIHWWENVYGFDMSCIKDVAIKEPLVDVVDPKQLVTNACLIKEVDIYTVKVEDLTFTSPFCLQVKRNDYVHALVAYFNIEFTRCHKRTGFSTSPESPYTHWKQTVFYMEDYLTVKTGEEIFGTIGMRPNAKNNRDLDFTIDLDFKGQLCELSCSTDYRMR
How it was run: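 Radiometric methylation assay: 0.5 nM PRMT1 preincubated 15 min at room temperature with compound (10-point 3-fold series, 1% DMSO) in pH 8.0 Tris buffer with Tween-20 and DTT. 0.25 uM ³H-SAM and 0.1 uM biotinylated peptide then reacted 120 min. Product captured on streptavidin FlashPlate and counted; IC50 from four-parameter fit of % inhibition.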

MMA in RKO cells = assay: RKO In Cell Western assay (MMA primary antibody); type: cell-based; conditions: Homo sapiens, 72 hours, read-out: RKO ICW_EC30
Protocol: RKO was seeded at a concentration of 20,000 cells/ml into a polylysine-coated 96-well plate (Corning #3599), with 2,000 cells per well and 100 μL of culture mediumper well. 500 nL of compound was added to the 96-well plate. 3) The 96-well plate was incubated in a 37° C., 5% CO2 incubator for 72 hours. After three days, the 96-well plate was taken from the incubator, 100 μL of 8% paraformaldehyde solution was added to each well, and the plate was placed at room temperature for 15 min. After 15 min, the liquid in the plate was shaken out and the plate was washed three times with phosphate buffer (1*PBS). The liquid in the plate was shaken out and 200 μL of membrane-breaking buffer (0.1% (v/v) Tween-20 in PBS) was added and the plate was incubated on a shaker for 30 min. After half an hour, the liquid in the plate was shaken out, and blocking buffer was added and the plate was incubated for two hours at room temperature with shaking. After that, the liquid in the plate was shaken off, and the blocking solution containing primary antibody (MMA primary antibody, CST #8711S, 1:1000 v/v) was added to the 96-well plate and the plate was incubated at 4° C. overnight with shaking. The next day, the plate was washed three times with washing solution (0.05% (v/v) Tween-20 in PBS), and a blocking solution containing secondary antibody (goat anti-rabbit IgG (H+L) Invitrogen #31460, 1:10,000 v/v) was added and the plate was incubated for two hours at room temperature. Afterwards, the 96-well plate was washed four times with washing solution. The TMB mixture was added to the 96-well plate and then the plate was incubated for 15 minutes at room temperature with shaking. After that, the reaction terminating solution was added, and the value was read at OD450 nm using an microplate reader. The plate was washed three times with washing solution, and 50 μL of janusgreen staining solution was added, and the plate was incubated for 15 minutes at room temperature with shaking. The reaction was washed ten times with water until no color residue was left. 200 μL of 0.5 M hydrochloric acid solution was added to each well and the plate was incubated for 10 min at room temperature. The value was read at OD595 nm using Flexstation.
Firstly, the ratio OD450/OD595 was calculated for each well
Each plate had six DMSO negative control groups (ZPE) and six 10 μM positive control groups (HPE), and the average of the control group ratios was used to determine the percentage of activation for each test well. The compounds to be tested were triple diluted with DMSO for a total of 8 concentration points with a starting concentration of 5 μM. The equation for calculating the activation percentage of each test well was: […]

Compound | pIC50 (MV-4-11 cells) | pIC50 (Toledo cells) | pIC50 (PRMT1) | EC30 (MMA in RKO cells) [nM]
CNCCN(C)Cc1ncc2[nH]c(C)nc2c1C1CCN(c2cccc(C)c2)CC1 [P415] | > 6.00 | – | – | –
CNCCN(C)Cc1ccc2[nH]c(=O)[nH]c2c1C1CCN(c2cccc(C)c2)CC1 [P261] | > 6.00 | – | – | –
CCN(CCNC)Cc1ccc2[nH]c(N3CCOCC3)nc2c1C1CCN(c2cccc(C)c2)CC1 [P426] | > 6.00 | – | – | –
CNCCN(C)Cc1ccc2[nH]c(-c3cnc(C)nc3)nc2c1C1CCN(c2cccc(C)c2)CC1 [P418] | > 6.00 | – | – | –
CNCCN(C)Cc1ccc2[nH]c(C(F)(F)F)nc2c1C1CCN(c2cccc(C)c2)CC1 [P416] | > 6.00 | – | – | –
CNCCN(C)Cc1ccc2[nH]c(N3CCOCC3)nc2c1C1CCN(c2cncc(F)c2)CC1 [P429] | > 6.00 | – | – | –
CNCCN(C)Cc1ccc2[nH]c(N3CCOCC3)nc2c1C1CCN(c2cccc(C)n2)CC1 [P428] | > 6.00 | – | – | –
CNCCN(C)Cc1ccc2[nH]c(C3CCN(C)CC3)nc2c1C1CCN(c2cccc(C)c2)CC1 [P448] | > 6.00 | – | – | –
CNCCN(C)Cc1ncc2[nH]c(=O)[nH]c2c1C1CCN(c2cccc(C)c2)CC1 [P413] | > 6.00 | – | – | –
CNCCN(C)Cc1ccc2[nH]c(C3=CCOCC3)nc2c1C1CCN(c2cccc(C)c2)CC1 [P422] | > 6.00 | – | – | –
CNCCN(C)Cc1ccc2[nH]c(C3=CCN(C)CC3)nc2c1C1CCN(c2cccc(C)c2)CC1 [P447] | > 6.00 | – | – | –
CNCCN(C)Cc1ccc2[nH]c(N3CCCCC3)nc2c1C1CCN(c2cccc(C)c2)CC1 [P424] | > 6.00 | – | – | –
CNCCN(C)Cc1ccc2[nH]c(N3CCN(C)CC3)nc2c1C1CCN(c2cccc(C)c2)CC1 [P423] | > 6.00 | – | – | –
CNCCN(C)Cc1cc2nc(N)[nH]c2cc1C1CCN(c2cccc(C)c2)CC1 [P408] | ≤ 5.30 | – | – | –
CCOCC1(COCC)CCC(c2c(CN(C)CCNC)ccc3[nH]c(N4CCOCC4)nc23)CC1 [P419] | > 6.00 | – | – | –
CNCCN(C)Cc1ccc(NCCNCC(=O)NC)nc1C1CCN(c2cccc(C)c2)CC1 [P400] | > 6.00 | – | – | –
CNCCN(C)Cc1ccc(C)nc1C1CCN(c2cccc(C)c2)CC1 [P081, N^1,N^2-dimethyl-N1-((6-methyl-2-(1-(m-tolyl)piperidin-4-yl)pyridin-3-yl)methyl)ethane-1,2-diamine] | – | > 6.00 | > 7.30 | < 250
CNCCN(C)Cc1ccccc1C1CCN(c2cccc(C)c2)CC1 [P022] | – | > 6.00 | > 7.30 | < 250
CNCCN(C)Cc1ccccc1[C@H]1CC[C@]2(CCCCO2)CC1 [P051] | – | > 6.00 | > 7.30 | 250 to 2500
CNCCN(C)Cc1ncccc1[C@H]1CC[C@@]2(CC1)COC(C)(C)C2 [P158] | – | > 6.00 | > 7.30 | < 250
CNCCN(C)Cc1ccc2c(c1C1CCN(c3cccc(C)c3)CC1)CC(C)(C)C(=O)N2 [P410] | > 6.00 | – | – | –
CNCCN(C)Cc1ncccc1C1CCN(c2ccc(C#N)cc2)CC1 [P202] | – | > 6.00 | > 7.30 | 250 to 2500
CNCCN(C)Cc1cc(F)ccc1C1CCc2ccc(C(F)(F)F)cc2CC1 (stereo not shown) [P001] | – | > 6.00 | > 7.30 | 250 to 2500

Compound | pIC50 (MV-4-11 cells) | pIC50 (Toledo cells) | pIC50 (PRMT1) | EC30 (MMA in RKO cells) [nM]
CNCCN(C)Cc1ccccc1[C@H]1CC[C@H](OC(C)C)CC1 [P056] | – | > 6.00 | > 7.30 | 250 to 2500
CNCCN(C)Cc1ncccc1N1CCC(Oc2cccc(C)c2)CC1 [P171] | – | > 6.00 | > 7.30 | 250 to 2500
Cc1cccc(N2CCC(c3c(CN(C)CCN)ccc4[nH]c(N5CCOCC5)nc34)CC2)c1 [P425] | > 6.00 | – | – | –
CNCCN(C)Cc1ccccc1C1CCN(c2ccc(C(F)(F)F)cc2)CC1 [P069] | – | > 6.00 | > 7.30 | 250 to 2500
CC[C@H]1CC[C@@H](c2ccccc2CN(C)CCNC)CC1 [P014] | – | > 6.00 | > 7.30 | 250 to 2500
CNCCN(C)Cc1ncccc1C1CCN(c2nc(N(C)C)nc3ccccc23)CC1 [P240] | – | > 6.00 | > 7.30 | 250 to 2500
CNCCN(C)Cc1ccc2[nH]c(N3CCOCC3)nc2c1C1CCc2cc(F)c(F)cc2CC1 [P420] | > 6.00 | – | – | –
CNCCN(C)Cc1ncccc1N1CCC(Oc2cccc(C(F)F)c2)CC1 [P147] | – | > 6.00 | > 7.30 | 250 to 2500
CNCCN(C)Cc1ncccc1N1CCc2cc(F)c(F)cc2CC1 [P107] | – | > 6.00 | > 7.30 | 250 to 2500
CNCCN(C)Cc1ccc2[nH]c(N3CCNCC3)nc2c1C1CCN(c2cccc(C)c2)CC1 [P440] | > 6.00 | – | – | –
CNCCN(C)Cc1ncccc1N1CCC(Oc2ccc(C(F)(F)F)cc2)CC1 [P142] | – | > 6.00 | > 7.30 | 250 to 2500
CNCCN(C)Cc1ncccc1C1CCN(CCc2ccccc2)CC1 [P074] | – | > 6.00 | > 7.30 | 250 to 2500
CNCCN(C)Cc1ncc2[nH]c(N3CCOCC3)nc2c1C1CCN(c2cccc(C)c2)CC1 [P414] | > 6.00 | – | – | –
CNCCN(C)Cc1ncccc1N1CCc2ccc(C#N)cc2CC1 [P225] | – | > 6.00 | > 7.30 | < 250
CNCCN(C)Cc1ncccc1N1CCC(Oc2cccc(F)c2)CC1 [P179] | – | > 6.00 | > 7.30 | 250 to 2500
CNCCN(C)Cc1ccccc1[C@H]1CC[C@@]2(CCCOC2)CC1 [P053] | – | > 6.00 | > 7.30 | 250 to 2500
CNCCN(C)Cc1ncccc1C1CCN(c2cccc(C(C)(C)C)c2)CC1 [P044] | – | > 6.00 | > 7.30 | 250 to 2500
CNCCN(C)Cc1ccc2[nH]c(N3CCN(C(=O)CCCC(=O)N4CCN(c5nc6c(C7CCN(c8cccc(C)c8)CC7)c(CN(C)CCNC)ccc6[nH]5)CC4)CC3)nc2c1C1CCN(c2cccc(C)c2)CC1 [P442] | > 6.00 | – | – | –
CNCCN(C)Cc1ccc(N)nc1C1CCc2cc(F)c(F)cc2CC1 [P198] | – | > 6.00 | > 7.30 | < 250
CNCCN(C)Cc1ncccc1C1CCN(c2cc(C)cc(F)c2)CC1 [P085] | – | > 6.00 | > 7.30 | < 250
CNCCN(C)Cc1ncccc1C1CCN(c2cccc(C(F)F)c2)CC1 [P078] | – | > 6.00 | > 7.30 | < 250
CNCCN(C)Cc1ncccc1N1CCc2ccccc2C(C)C1 (stereo not shown) [P112] | – | > 6.00 | > 7.30 | 250 to 2500
CNCCN(C)Cc1ncccc1[C@H]1CC[C@]2(CC1)COC(C)(C)C2 [P157] | – | > 6.00 | > 7.30 | 250 to 2500

From US20240307409A1, “ARGININE METHYLTRANSFERASE INHIBITOR AND USE THEREOF” (Cytosinlab Therapeutics Co., Ltd., priority 2021, published 2024)
